Experiment [1] deals with Recombinant human JAK2 kinase domain protein (Residues 812-1132) (Homo sapiens, UniProt O60674). In words: JAK2 biochemical assay (microfluidic mobility shift, peptide phosphorylation). Conditions: Enzyme JAK2 Ki (nM), 25 μM ATP, 0.2 nM total JAK2.
The subject of experiment [2] is JAK2 pathway: P-STAT5 in TF-1 human erythroleukemia cells + EPO. The experiment in a line: P-STAT5 TF-1+Erythropoietin (EPO) assay. Format: cell-based. Conditions: Homo sapiens, TF-1, TF-1 cells, EPO stimulation; read-out: Cellular JAK2 PSTAT5 TF-l + EPO IC50. The protocol:
(§1) TF-1 human erythroleukemia cells (ATCC®; Manassas, Va.; Catalog No. CRL-2003™) were grown in Roswell Park Memorial Institute (RPMI) medium supplemented with 10% heat-inactivated fetal bovine serum (FBS), 2 ng/mL granulocyte-macrophage colony-stimulating factor, 1×non-essential amino acids (NEAA), and 1 mM sodium pyruvate. The day before the assay, the cultures were transferred to Opti-MEM™, 1×NEAA, 1 mM sodium pyruvate, and 0.5% charcoal-stripped FBS (starve medium). Inhibitor stock solutions (5 mM in DMSO) were serially diluted 1:2 in DMSO to generate a 10-point concentration titration (at 500×test concentration), which was further diluted by a 50-fold dilution in Assay Medium (RPMI containing 1×NEAA and 1 mM sodium pyruvate) to generate a 10×concentration titration (in 2% DMSO). The cells (300,000 cells/well in 35 μL of Assay Medium) were seeded in 384-well Greiner plates. Diluted inhibitor at 10×concentration (5 μL) was added to the cells and the plates were incubated for 30 minutes at 37° C. in a humidified incubator. Cells were stimulated with the human recombinant cytokine at the respective EC90 concentrations, as previously determined for each individual lot. For the phosphorylated signal transducer and activator of transcription 6 (P-STAT6) TF-1+Interleukin-13 (IL-13) assay, 10 μL of 250 ng/mL IL-13 (R&D Systems; Minneapolis, Minn.) was added to the cells, which were then incubated for 10 minutes at 37° C. For the P-STAT5 TF-1+Erythropoietin (EPO) assay, 10 μL of 110 IU/mL EPO (Gibco Life Technologies, Catalog No. PHC2054) was added to the cells, which were then incubated for 30 min at 37° C. For both assays, the incubation was followed by addition to the cells of 5 μL of ice-cold 10× cell lysis buffer (Cell Signaling Technologies; Danvers, Mass.; Catalog No. 9803S) containing 1 mM phenylmethylsulfonyl fluoride (PMSF). Assay plates were frozen at −80° C. for a minimum of 1 horn. In the IL-13 assay, P-STAT6 was measured by coating goat anti-rabbit (GAR) plates (Meso Scale Discovery [MSD]; Rockville, Md.; Catalog No. MSD L21RA-1) with rabbit anti-human total STAT6 antibody (Cell Signaling Technologies; Catalog No. 9362S), incubating the cell lysates in the coated plates overnight at 4° C., and then detecting with mouse anti-P-STAT6 (Tyr641) Clone 16E12 antibody (MilliporeSigma; Burlington, Mass.; Catalog No. 05-590, custom labeled by MSD with SULFO-tag) using standard MSD plate processing, washing, and detection protocols. In the EPO assay, P-STAT5 was detected using the phospho-STAT5a,b Whole Cell Lysate Kit (MSD; Catalog No. K150IGD-1). The electrochemiluminescence (ECL) signal of wells was read on the MESO SECTOR S600 (MSD) reader.

In experiment [3] the test system is JAK1: IL-13-stimulated STAT6 phosphorylation in BEAS-2B cells. In words: P-STAT6 BEAS-2B+IL-13 Cell Assay. Conditions: Homo sapiens, BEAS-2B, IL-13 stimulation, read-out: Cellular JAK1 PSTAT6 BEAS2B + IL13 IC50. Format: cell-based, human. The gist of the method: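 BEAS-2B cells in BEGM preincubated 1 h at 37 °C with 10-point, 1:2 compound dilutions, then stimulated 15 min with IL-13 (250 ng/mL stock). Lysate pSTAT6 (Tyr641) captured on total-STAT6 antibody and read by MSD electrochemiluminescence; IC50 from four-parameter logistic fit.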

The subject of experiment [4] is JAK1 pathway: P-STAT6 in TF-1 human erythroleukemia cells + IL-13. In words: P-STAT6 TF-1+Interleukin-13 (IL-13) assay. The settings on record: Homo sapiens, TF-1, TF-1 cells, IL-13 stimulation; read-out: Cellular JAK1 PSTAT6 TF-1 + IL13 IC50. Format: cell-based. The method, then:
as §1

The target of experiment [5] is T1, recombinant human JAK1 kinase domain protein (Residues 854-1154) (Homo sapiens, UniProt P23458).
T1 construct: human JAK1 kinase domain protein (Residues 854-1154); purchased Proteros Biostructures GmbH (Martinsried, Germany); host or cells: insect cells
The experiment in a line: JAK1 biochemical assay (microfluidic mobility shift, peptide phosphorylation). Conditions: 25 μM ATP, 1 nM total JAK1; read-out: Enzyme JAK1 Ki. An excerpt: JAK1 and JAK2 Biochemical Assays

T1 sequence (P23458 854-1154): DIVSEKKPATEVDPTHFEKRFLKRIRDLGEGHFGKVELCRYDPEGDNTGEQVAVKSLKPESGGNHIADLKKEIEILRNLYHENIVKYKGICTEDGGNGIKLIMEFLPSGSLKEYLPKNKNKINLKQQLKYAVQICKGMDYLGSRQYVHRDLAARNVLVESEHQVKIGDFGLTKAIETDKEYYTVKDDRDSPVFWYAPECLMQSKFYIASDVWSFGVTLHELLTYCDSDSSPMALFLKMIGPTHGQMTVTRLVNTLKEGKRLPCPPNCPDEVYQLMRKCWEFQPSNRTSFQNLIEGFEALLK
Chain of Recombinant human JAK2 kinase domain protein (Residues 812-1132) (O60674 812-1132): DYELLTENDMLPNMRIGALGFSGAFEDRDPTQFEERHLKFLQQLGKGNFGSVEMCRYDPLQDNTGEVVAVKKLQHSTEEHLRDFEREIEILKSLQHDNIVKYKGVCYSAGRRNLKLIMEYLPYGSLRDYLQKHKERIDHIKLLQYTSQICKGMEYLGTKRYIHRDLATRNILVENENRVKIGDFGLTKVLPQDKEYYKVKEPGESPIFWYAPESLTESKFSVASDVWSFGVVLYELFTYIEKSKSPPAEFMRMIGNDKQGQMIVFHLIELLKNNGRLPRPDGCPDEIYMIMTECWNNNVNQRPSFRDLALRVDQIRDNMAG

Broadly, the Ki is a measure of affinity in units of concentration, obtained from inhibition or displacement. Broadly, the IC50 is the point on the concentration scale where inhibition reaches its midpoint. For the compound `CC(C)S(=O)(=O)c1ccc(OC(F)F)c(-c2nn(C)cc2NC(=O)c2cnn3cccnc23)c1` [Example 1, N-[3-[2-(difluoromethoxy)-5-isopropylsulfonyl-phenyl]-1-methyl-pyrazol-4-yl]pyrazolo[1,5-a]pyrimidine-3-carboxamide], the Ki in experiment [1] was determined as 0.25 nM; in experiment [5] it was 0.56 nM. Further, the results for the IC50 in experiment [2], in experiment [3] and in experiment [4] were 12 nM, 31 nM and 6.3 nM, respectively.

The record behind these values is patent US11453671B2, “Pyrazolopyrimidine inhibitors of JAK kinases and uses thereof” (Genentech, Inc., priority 2020, dated 2022).
